Experimental data: patent US9586928B2 (The Scripps Research Institute, priority 2011, dated 2017)

Tests used:
FXR = target: T1, FXR (Homo sapiens, UniProt Q96RI1); assay: Gal4-FXR / UAS luciferase cotransfection assay; type: cell-based; settings: Gal4 chimeric cotransfection
T1 sequence (Q96RI1 262-486 limits assumed): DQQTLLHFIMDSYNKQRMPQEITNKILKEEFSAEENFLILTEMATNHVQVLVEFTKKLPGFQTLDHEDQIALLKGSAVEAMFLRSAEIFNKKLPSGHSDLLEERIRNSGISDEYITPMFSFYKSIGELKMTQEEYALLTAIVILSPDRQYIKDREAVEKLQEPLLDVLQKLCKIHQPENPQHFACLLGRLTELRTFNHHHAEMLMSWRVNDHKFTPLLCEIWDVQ
Description: (§1) Cotransfection assays were performed as previously described in HEK293 cells (Gal4 cotransfection assay or IL-17 luciferase reporter)[8]. HEK293 and the mouse lymphoma EL4 (ATCC) cells were maintained in DMEM supplemented with 10% FBS plus antibiotics (penicillin and streptomycin; Invitrogen).

T regulatory cells = assay: T regulatory cell differentiation of splenocytes (RTPCR, Foxp3 FACS); type: cell-based, murine
Description: Therefore, the environmental cues associated with the concentration of TGF[…] dictates the balance between TH17 and T regulatory cell differentiation. In light of the reciprocal relationship between these two cell types, we assessed whether SR1555 affected the development of T regulatory cells in vitro. Splenocytes were cultured under T regulatory cell polarizing conditions (TGFβ and IL-2) for 3 days. […] To determine whether the gene expression data would correlate with protein expression, we again cultured splenocytes for 5 days under T regulatory cell polarizing conditions in the presence of DMSO or SR1555 and examined the expression of Foxp3 by intracellular cytokine FACS analysis.
Splenocytes were differentiated under the following conditions: iTreg-10 μg/mL anti-IFNγ, 10 μg/mL anti-IL-4, and 2 ng/mL TGFβ (R&D Systems); 20 ug/mL anti-IFNγ, 20 ug/mL anti-IL-4, 1 ng/mL TGFβ, and 10 ng/mL IL-6 (R&D Systems) for TH17 conditions. All cultures were stimulated with 1 μg/mL anti-CD3 (eBiosciences) and 1 μg/mL anti-CD28 (eBiosciences). Four to five days after activation, all cells were restimulated with 5 ng/mL phorbol-12-myristate-13-acetate (PMA) (Sigma) and 500 ng/mL ionomycin (Sigma) for 2 hours with the addition of GolgiStop (BD Bioscience) for an additional 2 hours before intracellular staining. Cells were cultured in RPMI 1640 medium (Invitrogen) with 10% FBS and antibiotics.
RNA extraction and QRT-PCR analysis was performed as previously described.

LXR = target: T2, LXR (Homo sapiens, UniProt Q13133); assay: Gal4-LXRα / UAS luciferase cotransfection assay; type: cell-based
T2 sequence (Q13133 209-447 limits assumed): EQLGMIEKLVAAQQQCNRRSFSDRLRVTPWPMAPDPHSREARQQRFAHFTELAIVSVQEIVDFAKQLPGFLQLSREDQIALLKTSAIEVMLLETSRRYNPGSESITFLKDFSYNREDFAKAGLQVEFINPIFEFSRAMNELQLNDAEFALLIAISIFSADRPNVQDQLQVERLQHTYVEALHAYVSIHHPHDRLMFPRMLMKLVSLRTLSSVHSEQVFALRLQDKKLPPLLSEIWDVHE
Description: (§2) The cells were treated with either DMSO or various compounds as indicated four hours after replating. Following additional 20 hour incubation, luciferase levels were assayed by one-step addition of 20 μL BriteLite (Perkin Elmer) and read using an Envision multilabel plate reader (Perkin Elmer).
as §1

RORα = target: T3, RORα (Homo sapiens, UniProt P35398); assay: IL-17 promoter luciferase reporter with full-length RORα; type: cell-based
T3 sequence (P35398 1-523): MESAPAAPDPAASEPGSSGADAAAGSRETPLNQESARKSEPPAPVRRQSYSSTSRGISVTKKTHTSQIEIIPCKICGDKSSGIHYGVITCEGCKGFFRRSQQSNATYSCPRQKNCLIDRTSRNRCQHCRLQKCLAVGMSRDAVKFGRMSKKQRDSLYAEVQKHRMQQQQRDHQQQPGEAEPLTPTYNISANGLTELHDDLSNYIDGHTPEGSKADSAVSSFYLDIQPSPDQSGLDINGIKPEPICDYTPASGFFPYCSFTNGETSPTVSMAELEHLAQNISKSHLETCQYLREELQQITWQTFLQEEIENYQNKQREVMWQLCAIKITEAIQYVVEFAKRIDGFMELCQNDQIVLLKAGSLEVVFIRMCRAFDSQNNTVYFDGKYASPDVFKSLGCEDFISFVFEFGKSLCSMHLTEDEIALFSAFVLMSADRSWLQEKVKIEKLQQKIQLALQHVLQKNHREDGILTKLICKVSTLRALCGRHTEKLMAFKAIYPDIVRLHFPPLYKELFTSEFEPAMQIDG
Text: Since RORα and RORγ are critical regulators of IL-17 gene expression, we examined whether SR1555 would affect RORα and RORγ-dependent regulation of an IL-17 promoter driven luciferase reporter construct. HEK293 cells were transiently transfected with an IL-17 reporter, either full-length RORα or RORγ, and treated with an increasing concentration of SR1555[8]. In a dose dependent manner, SR1555 suppressed IL-17 promoter driven activity by RORγ but not RORα, further confirming that SR1555 is indeed a RORγ-specific inverse agonist (FIG. 1d). Finally, using EL4 cells, a murine thymoma which endogenously express RORα, RORγ t, and IL-17A, we examined whether SR1555 affected endogenous IL-17 gene expression. EL4 cells were treated with DMSO or SR1555 for 24 hours and analyzed for Il17a gene expression by quantitative real-time PCR.
Cotransfection assays were performed as previously described in HEK293 cells (Gal4 cotransfection assay or IL-17 luciferase reporter)[8]. […]
HEK293 cells were maintained in Dulbecco's modified Eagle's medium (DMEM) supplemented with 10% fetal bovine serum at 37° C. under 5% CO2. […] The luciferase levels were assayed following additional 20 hour incubation by one-step addition of BriteLite Plus (Perkin Elmer) and read using an Envision (Perkin Elmer). […]

VP16 = assay: Gal4 DBD-VP16 / UAS luciferase control assay; type: cell-based
Description: as §2

## OC(c1ccc(-c2ccc(CN3CCN(Cc4ccncc4)CC3)cc2)c(F)c1)(C(F)(F)F)C(F)(F)F [SR2211, 1,1,1,3,3,3-hexafluoro-2-(2-fluoro-4′-((4-(pyridin-4-ylmethyl)piperazin-1-yl)methyl)-[1,1′-biphenyl]-4-yl)propan-2-ol]
FXR
  effect on transcriptional activity of FXR: no effect on the transcriptional activity of FXR
T regulatory cells
  T regulatory cell proliferation: does not alter T regulatory cell proliferation
LXR
  right shift of EC50 on LXRα: more than 100 fold
LXR; Gal4 chimeric cotransfection
  effect on LXR activity: minimal activation of LXRα
LXR; highest concentration tested
  activation of LXRα as compared to T1317: less than 5%
RORα
  IL-17 promoter driven activity by RORα: did not alter the transcription driven by the Il17 promoter
VP16
  luciferase activity of Gal4 DBD-VP16 (off-target effects/toxicity): no change in the luciferase activity of Gal4 DBD-VP16
